# Active and inactive are the calls of the source.
# Tests used:
# [1] = HepG2 cell cytotoxicity, dose response, cytotoxicity control for Shn3 inhibitor project, CellTiter-Glo, cherry-picked (AID 624134); format: functional, cell-based
# [2] = cytotoxicity toward NIH3T3 fibroblasts, dose response, counter-screen, cell-based, ATP luminescence, mouse fibroblasts (AID 2010); format: functional;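 also: cells exposed to compound for about 90 hours before reading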
# [3] = tested on: HT-1080; assay: cytotoxicity in HT1080 fibrosarcoma cells, cell-based, fluorescence readout (AID 620); format: functional; conditions: Homo sapiens
# [4] = target: T1, Microphthalmia-associated transcription factor (Homo sapiens, UniProt O75030); assay: TRPM1 promoter luciferase signal decrease, dose response, MITF inhibitor project, cell-based, SK-MEL-5, cherry-picked, set 3 (AID 493073); format: functional
# T1 sequence (O75030 whole entry): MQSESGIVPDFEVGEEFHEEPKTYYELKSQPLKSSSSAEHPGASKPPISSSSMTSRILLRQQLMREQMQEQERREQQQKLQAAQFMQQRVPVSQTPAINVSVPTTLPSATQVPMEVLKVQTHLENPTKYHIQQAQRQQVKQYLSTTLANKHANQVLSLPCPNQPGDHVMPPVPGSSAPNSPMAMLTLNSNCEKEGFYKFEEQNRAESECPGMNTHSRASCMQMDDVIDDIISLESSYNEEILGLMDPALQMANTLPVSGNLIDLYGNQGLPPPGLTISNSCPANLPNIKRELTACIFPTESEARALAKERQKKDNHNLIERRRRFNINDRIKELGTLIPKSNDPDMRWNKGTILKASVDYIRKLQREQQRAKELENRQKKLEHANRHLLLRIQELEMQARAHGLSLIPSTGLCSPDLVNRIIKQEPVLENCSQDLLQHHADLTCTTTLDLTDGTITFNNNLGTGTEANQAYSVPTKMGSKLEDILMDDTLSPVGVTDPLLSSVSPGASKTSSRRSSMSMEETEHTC
# [5] = target: Nonstructural protein 1 (Influenza A virus, UniProt Q194T2); format: functional, Influenza A virus (A/California/07/2009(H1N1))
# Sequence of Nonstructural protein 1 (Q194T2 whole entry): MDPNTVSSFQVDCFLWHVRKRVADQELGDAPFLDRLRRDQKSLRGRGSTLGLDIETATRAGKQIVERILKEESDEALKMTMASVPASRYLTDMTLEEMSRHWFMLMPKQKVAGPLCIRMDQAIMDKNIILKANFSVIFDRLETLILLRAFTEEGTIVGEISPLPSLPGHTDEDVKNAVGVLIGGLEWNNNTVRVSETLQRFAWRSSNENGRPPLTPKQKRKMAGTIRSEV
# [6] = tested on: A-375; assay: A375 melanoma cell viability reduction, dose response, counter-screen for MITF modulator project, cherry-pick samples, set 2 (AID 540335); format: functional, cell-based; conditions: Homo sapiens
# [7] = target: T2, Luciferin 4-monooxygenase (Photinus pyralis, UniProt P08659); assay: Counter Screen for Luciferase-based Assay Positives. [Related pubchem assays: 620, 618, 411 ]
# T2 sequence (P08659 whole entry): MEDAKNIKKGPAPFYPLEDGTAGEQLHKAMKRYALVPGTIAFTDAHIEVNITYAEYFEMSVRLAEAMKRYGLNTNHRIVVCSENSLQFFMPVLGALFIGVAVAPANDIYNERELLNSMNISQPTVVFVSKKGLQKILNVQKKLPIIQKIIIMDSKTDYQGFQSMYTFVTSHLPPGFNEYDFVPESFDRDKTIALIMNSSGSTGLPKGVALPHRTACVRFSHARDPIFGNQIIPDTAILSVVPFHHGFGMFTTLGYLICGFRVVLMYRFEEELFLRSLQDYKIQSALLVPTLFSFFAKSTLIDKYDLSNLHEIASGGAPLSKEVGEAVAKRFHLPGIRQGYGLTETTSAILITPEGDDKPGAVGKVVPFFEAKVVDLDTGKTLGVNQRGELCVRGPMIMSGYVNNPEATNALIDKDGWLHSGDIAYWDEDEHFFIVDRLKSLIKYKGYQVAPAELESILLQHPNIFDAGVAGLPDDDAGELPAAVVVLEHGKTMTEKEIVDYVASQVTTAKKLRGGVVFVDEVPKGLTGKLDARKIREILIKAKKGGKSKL
# [8] = control 3'UTR Renilla luciferase suppression, dose response, counter-screen for Shn3 inhibitor project, cell-based, Clone20-Shn3RL, cherry-picked (AID 624133); format: functional
# [9] = cells; format: functional, cell-based
# [10] = inhibitors of intracellular T. cruzi replication, confirmation, NIH3T3 host cells, beta-gal luminescence (AID 2044); format: functional, cell-based;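 also: intracellular parasites grown in NIH/3T3 mouse fibroblasts as host cells; luminescent beta-galactosidase reporter signal from transgenic T. cruzi replicating inside host cells; inhibitors lower the luminescence signal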
# [11] = cells; format: functional, cell-based; remark: listed apart in the source
# [12] = Shn3 3'UTR reporter inhibitors, dose response, cell-based, Clone20 osteoblasts, firefly luciferase, cherry-picked (AID 624132); format: functional;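 also: firefly luciferase luminescence from reporter carrying the Shn3 3'UTR in osteoblasts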
# [13] = target: T3, Coagulation factor XII (Homo sapiens, UniProt P00748); format: functional;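 also: activated factor XIIa alpha cleaving a fluorogenic AMC peptide substrate; inhibitor potency from loss of enzyme activity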
# T3 sequence (P00748 whole entry): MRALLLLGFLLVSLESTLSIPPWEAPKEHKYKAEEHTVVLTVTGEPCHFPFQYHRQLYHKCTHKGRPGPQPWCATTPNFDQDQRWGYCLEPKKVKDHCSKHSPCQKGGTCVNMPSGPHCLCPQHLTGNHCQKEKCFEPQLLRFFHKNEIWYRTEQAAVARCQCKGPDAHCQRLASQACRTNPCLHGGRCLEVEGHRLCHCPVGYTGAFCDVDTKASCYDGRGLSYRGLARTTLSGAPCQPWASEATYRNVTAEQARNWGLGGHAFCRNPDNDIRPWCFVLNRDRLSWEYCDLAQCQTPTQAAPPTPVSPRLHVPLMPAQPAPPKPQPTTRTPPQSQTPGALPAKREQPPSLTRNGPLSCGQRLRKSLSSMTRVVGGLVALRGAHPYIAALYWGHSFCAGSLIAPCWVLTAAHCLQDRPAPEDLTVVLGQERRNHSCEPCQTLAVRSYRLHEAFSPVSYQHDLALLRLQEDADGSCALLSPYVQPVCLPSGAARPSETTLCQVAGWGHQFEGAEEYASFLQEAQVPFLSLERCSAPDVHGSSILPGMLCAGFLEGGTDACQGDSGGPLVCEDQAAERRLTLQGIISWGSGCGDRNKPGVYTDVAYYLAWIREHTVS
# [14] = target: T4, Protein RecA (Mycobacterium tuberculosis, UniProt P9WHJ3); assay: Fluorescence Cell-Free Homogeneous Dose Retest to Identify Inhibitors of RecA-Intein Splicing Activity. [Related pubchem assays (depositor defined):AID2097, AID2223, AID489010, AID492950]; format: functional
# T4 sequence (P9WHJ3 whole entry): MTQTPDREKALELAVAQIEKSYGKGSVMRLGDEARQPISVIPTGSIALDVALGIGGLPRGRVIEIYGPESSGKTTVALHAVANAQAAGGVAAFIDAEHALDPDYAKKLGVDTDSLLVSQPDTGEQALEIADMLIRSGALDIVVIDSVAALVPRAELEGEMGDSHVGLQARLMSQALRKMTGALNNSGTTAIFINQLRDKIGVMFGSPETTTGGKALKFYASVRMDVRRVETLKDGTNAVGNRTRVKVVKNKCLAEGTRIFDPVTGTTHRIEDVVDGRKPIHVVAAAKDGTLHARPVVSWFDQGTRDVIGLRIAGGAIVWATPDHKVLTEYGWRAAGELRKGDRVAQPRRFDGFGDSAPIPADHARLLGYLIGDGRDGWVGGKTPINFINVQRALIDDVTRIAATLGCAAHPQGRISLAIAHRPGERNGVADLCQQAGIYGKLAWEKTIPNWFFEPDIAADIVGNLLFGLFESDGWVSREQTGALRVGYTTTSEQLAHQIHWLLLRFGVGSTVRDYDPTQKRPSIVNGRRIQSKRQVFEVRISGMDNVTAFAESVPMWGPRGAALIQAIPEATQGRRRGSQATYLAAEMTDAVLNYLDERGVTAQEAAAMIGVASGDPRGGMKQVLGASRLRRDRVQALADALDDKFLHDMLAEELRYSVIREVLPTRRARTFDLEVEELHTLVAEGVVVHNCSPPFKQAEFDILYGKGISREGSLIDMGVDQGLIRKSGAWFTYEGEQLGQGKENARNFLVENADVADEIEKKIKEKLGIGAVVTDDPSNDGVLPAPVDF
# [15] = target: T5, Replicative DNA helicase DnaB (Mycobacterium tuberculosis, UniProt P9WMR3); assay: DnaB intein splicing inhibitors, dose response, biochemical, cell-free fluorescence (AID 449749); format: functional
# T5 sequence (P9WMR3 whole entry): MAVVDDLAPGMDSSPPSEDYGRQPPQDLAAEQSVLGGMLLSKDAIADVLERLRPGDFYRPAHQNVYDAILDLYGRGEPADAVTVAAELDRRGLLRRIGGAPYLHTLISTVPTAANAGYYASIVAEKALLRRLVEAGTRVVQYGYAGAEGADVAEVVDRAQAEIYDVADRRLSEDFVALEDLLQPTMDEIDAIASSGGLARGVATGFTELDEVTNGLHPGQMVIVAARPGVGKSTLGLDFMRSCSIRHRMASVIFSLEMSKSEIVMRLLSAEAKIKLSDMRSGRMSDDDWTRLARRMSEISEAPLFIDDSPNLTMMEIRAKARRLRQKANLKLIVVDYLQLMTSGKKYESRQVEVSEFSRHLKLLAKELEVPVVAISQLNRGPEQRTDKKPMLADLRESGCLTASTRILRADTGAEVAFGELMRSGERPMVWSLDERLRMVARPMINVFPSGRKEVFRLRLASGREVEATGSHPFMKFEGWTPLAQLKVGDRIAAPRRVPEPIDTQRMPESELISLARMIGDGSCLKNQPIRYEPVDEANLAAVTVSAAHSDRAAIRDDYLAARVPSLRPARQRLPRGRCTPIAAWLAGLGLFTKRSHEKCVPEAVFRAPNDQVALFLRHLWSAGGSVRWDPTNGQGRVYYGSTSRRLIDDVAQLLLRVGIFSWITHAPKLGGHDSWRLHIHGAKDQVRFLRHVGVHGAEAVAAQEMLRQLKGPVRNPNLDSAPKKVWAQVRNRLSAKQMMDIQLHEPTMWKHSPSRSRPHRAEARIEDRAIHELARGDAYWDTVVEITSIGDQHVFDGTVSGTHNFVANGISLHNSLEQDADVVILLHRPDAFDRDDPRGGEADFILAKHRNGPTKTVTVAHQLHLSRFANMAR
# [16] = tested on: A-375; assay: MITF: Counter assay: A375 proliferation Measured in Cell-Based System Using Plate Reader - 2084-03_Inhibitor_Dose_DryPowder_Activity. [Related pubchem assays (depositor defined):AID488944]; format: functional; conditions: Homo sapiens
# [17] = tested on: Escherichia coli; assay: microbe, parasite or virus in culture
# [18] = DNA binding of candidate compounds, dose response, artefact control for RAD54 inhibitor project, biochemical, fluorescence polarization, cherry-pick (AID 651673); format: functional
# [19] = target: Dual specificity tyrosine-phosphorylation-regulated kinase 1A (Rattus norvegicus, UniProt Q63470); format: biochemical, Homo sapiens
# [20] = target: T6, DNA repair and recombination protein RAD54-like (Homo sapiens, UniProt Q92698); assay: inhibitors of human RAD54 branch migration, confirmation, biochemical, fluorescence, cherry-picked samples, dose series (AID 651657); format: functional
# T6 sequence (Q92698 whole entry): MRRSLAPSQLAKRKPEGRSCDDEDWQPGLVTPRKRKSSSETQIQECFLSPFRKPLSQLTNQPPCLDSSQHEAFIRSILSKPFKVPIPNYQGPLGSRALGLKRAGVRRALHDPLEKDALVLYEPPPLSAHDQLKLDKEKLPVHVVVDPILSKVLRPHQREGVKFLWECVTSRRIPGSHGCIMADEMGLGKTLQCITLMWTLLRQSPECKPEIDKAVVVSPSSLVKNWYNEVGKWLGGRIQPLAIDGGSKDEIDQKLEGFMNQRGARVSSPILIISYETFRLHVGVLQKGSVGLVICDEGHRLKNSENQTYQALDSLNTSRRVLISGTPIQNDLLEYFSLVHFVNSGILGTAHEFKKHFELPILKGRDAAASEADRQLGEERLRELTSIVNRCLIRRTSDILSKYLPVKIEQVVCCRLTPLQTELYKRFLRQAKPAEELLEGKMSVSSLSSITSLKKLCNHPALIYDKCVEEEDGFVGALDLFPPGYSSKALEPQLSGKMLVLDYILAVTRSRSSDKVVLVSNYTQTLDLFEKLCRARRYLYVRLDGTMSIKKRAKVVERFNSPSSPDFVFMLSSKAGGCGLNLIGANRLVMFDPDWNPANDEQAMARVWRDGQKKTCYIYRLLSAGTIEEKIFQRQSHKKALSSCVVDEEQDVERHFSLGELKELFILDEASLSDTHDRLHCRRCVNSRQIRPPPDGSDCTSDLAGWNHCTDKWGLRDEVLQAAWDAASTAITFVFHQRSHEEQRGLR
# [21] = Luminescence Cell-Based Dose Confirmation HTS to Identify Inhibitors of Platelet Dense Granule Release. [Related pubchem assays: 1663 (Primary HTS), 1678 (Summary of Project)]; format: functional
# [22] = target: T2, Luciferin 4-monooxygenase; assay: firefly luciferase enzyme inhibitors, dose response, biochemical, luminescence (AID 1891)
# [23] = target: CAAX prenyl protease 2 (Homo sapiens, UniProt Q9Y256); assay: human Rce1 protease inhibitors, dose response, biochemical, yeast membranes, quenched-peptide fluorescence, cherry-pick (AID 588849)
# Sequence of CAAX prenyl protease 2 (Q9Y256 whole entry): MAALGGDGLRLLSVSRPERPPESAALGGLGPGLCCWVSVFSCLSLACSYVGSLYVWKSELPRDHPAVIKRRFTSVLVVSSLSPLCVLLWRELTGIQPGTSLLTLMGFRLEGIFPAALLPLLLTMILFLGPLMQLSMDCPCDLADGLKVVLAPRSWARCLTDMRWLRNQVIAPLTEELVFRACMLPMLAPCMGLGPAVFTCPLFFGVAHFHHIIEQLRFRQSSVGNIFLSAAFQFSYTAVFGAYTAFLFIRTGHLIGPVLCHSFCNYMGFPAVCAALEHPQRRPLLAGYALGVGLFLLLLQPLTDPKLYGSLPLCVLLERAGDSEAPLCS
# [24] = target: CAAX prenyl protease 1 (Saccharomyces cerevisiae S288c, UniProt P47154); assay: Ste24 protease inhibitors, dose response, biochemical, S. cerevisiae, plate reader, cherry-pick (AID 488815)
# Sequence of CAAX prenyl protease 1 (P47154 whole entry): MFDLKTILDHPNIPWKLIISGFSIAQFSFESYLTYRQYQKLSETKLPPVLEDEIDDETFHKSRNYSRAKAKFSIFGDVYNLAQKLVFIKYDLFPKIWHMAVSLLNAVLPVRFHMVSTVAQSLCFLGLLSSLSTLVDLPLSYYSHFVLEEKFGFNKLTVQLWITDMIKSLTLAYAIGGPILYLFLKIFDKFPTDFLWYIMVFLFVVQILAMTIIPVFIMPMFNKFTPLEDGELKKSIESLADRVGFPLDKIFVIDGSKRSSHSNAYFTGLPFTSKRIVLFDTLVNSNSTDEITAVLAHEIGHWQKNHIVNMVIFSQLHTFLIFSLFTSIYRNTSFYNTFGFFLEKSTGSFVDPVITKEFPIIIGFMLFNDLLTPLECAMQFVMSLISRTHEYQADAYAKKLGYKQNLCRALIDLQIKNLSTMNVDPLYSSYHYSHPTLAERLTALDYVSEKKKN
# [25] = target: Trypsin (Sus scrofa, UniProt P00761); assay: porcine trypsin inhibitors, dose response, selectivity assay for Rce1 protease inhibitor project, biochemical, quenched peptide fluorescence, cherry-pick (AID 488789)
# Sequence of Trypsin (P00761 whole entry): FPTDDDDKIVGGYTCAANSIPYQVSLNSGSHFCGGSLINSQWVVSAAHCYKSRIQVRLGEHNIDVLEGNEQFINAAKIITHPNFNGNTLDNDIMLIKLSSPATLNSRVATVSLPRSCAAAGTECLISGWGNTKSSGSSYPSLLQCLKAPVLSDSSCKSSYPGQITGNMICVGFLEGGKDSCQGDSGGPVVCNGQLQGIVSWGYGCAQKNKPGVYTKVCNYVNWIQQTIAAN
# [26] = target: Dual specificity protein phosphatase 3 (Homo sapiens, UniProt P51452); assay: SAR VHR1 Fluorescent Assay for In Vitro dose response studies Set 3. [Related pubchem assays (depositor defined):AID1654, AID1661, AID1878]; format: functional
# Sequence of Dual specificity protein phosphatase 3 (P51452 whole entry): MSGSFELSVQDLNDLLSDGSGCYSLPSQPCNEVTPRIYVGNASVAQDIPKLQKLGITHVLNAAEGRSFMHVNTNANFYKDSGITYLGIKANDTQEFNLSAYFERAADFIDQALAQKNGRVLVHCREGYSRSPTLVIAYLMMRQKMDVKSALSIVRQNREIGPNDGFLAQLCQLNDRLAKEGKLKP
smiles,measurement,setting,value
Oc1c(CN2CCCCC2)cc(COCc2ccccc2)c2cccnc12,AC50,[1],10.8 µM (active)
same,EC50,[2],6.52 µM (active)
same,EC50,[3],27.9 µM (active)
same,AC50,[4],2.17 µM (active)
same,IC50,[5],1.86 µM (active)
same,AC50,[6],13.5 µM (active)
same,EC50,[7],> 100 µM (not active)
same,AC50,[8],7.15 µM (active)
same,EC50,[9],> 350 µM (not active)
same,EC50,[10],4.04 µM (active)
same,EC50,[11],7.62 µM (active)
same,AC50,[12],0.537 µM (active)
O=c1c(Cl)c(Cl)cnn1Cc1ccc(F)cc1,IC50,[13],> 50 µM (inactive)
same,EC50,[14],11.3 µM (active)
same,AC50,[15],39.5 µM (active)
same,AC50,[4],8.9 µM (active)
same,AC50,[16],30.8 µM (active)
COc1ccccc1C(C[N+](=O)[O-])c1c[nH]c2ccccc12 (centres undefined),AC50,[17],90.9 µM (active)
COc1ccc2cc3cc(C(=O)NCCCN4CCOCC4)oc3nc2c1,EC50,[2],> 60 µM (not active)
same,AC50,[18],55.3 µM (active)
same,AC50,[19],5.51 µM (active)
same,AC50,[20],36.7 µM (active)
same,EC50,[10],2.2 µM (active)
CCn1c(-c2cccs2)nc2ccccc21,EC50,[21],> 112 µM (not active)
same,EC50,[22],> 112 µM (not active)
same,AC50,[23],11.6 µM (active)
same,AC50,[24],2.54 µM (active)
same,AC50,[25],6.83 µM (active)
CSc1ccc2nc(Nc3nnc(-c4ccc5c(c4)OCCO5)o3)sc2c1,IC50,[26],0.682 µM (active)

# — ChEMBL document CHEMBL1201862, “PubChem BioAssay data set” (2004)
